Article PMC9823097, “Dysregulation of PRMT5 in chronic lymphocytic leukemia promotes progression with high risk of Richter’s transformation” (Nature Communications, 2023)
Where “and” joins values, the source holds several entries; their conditions need not be identical. Equal entries are not always repeated.

Tests used:
[1] = test system: HG3 CLL cell line; assay: Global symmetric dimethyl arginine (SDMA) western blot, HG3; format: cell-based; conditions: HG3, 72 h treatment
From the text: Proteins extracted from whole-cell lysates were resolved by SDS-PAGE and transferred on nitrocellulose membrane as previously described. CpG685 oligonucleotide was obtained from the OSU Cytogenetics Core Lab. Antibodies used for immunoblots included anti-human PRMT5 (Abcam #ab109451), GAPDH (Millipore Sigma #MAB374), SDMA (Cell Signaling Technology #13222), c-Myc (Cell Signaling Technology #5605S), and β-Actin (Cell Signaling Technology #4967S). Cas9-mediated doxycycline-inducible knockout of PRMT5 utilized a targeted sgRNA (guide sequence: […], PAM: GGG).

[2] = test system: HG3 cells; assay: Cell growth curves over 12 days, HG3; format: cell-based
Description: Live cells/mL were counted on days 3, 6, 10, and 12. […] The split factor was calculated at indicated time points by dividing the counted cells/mL by 3E5. Cell growth was extrapolated over time by multiplying the subsequent cell count by the previous split factor. Cell growth is plotted as fold change relative to DMSO-treated cells.

[3] = test system: Eµ-PRMT5/TCL1 Cd19+Cd5+ spleen cells engrafted into immunocompetent C57/BL6J mice; assay: Adoptive transfer of Eµ-PRMT5/TCL1 spleen cells into C57/BL6J mice, treatment study; format: in vivo
Description: For adoptive transfer, viable Cd19^+Cd5^+ cells (5 × 10^6) from the spleen of an Eµ-PRMT5/TCL1 transgenic mouse with active CLL-like leukemia (>80% circulating in peripheral blood) and palpable splenomegaly were engrafted by tail vein into immunocompetent C57/BL6J female mice. Engrafted mice were randomly assigned to treatment conditions: PRT382 10 mg/kg, EPZ015666 50 mg/kg, or vehicle (0.5% methylcellulose, 0.1% tween) at 1-week post engraftment. All treatments were administered by oral gavage 4 contiguous days per week (Mon-Thurs). Predefined euthanasia criteria for mice in all transgenic colonies and murine transplant models were followed and included lethargy, impaired motility, splenomegaly, enlarged lymph nodes and/or superficial lymphoid tumors greater than 1.6 cm in diameter (or cumulative diameter of 1.6 cm if multiple tumors), decrease in body weight (>20%), ruffled fur, hunched back, failure to nest, and loss of appetite.

[4] = HG3, continuous exposure over 12 days

## CON=c1nc[nH]c2c1ccn2[C@@H]1O[C@H]([C@H](O)c2ccc(Cl)c(Cl)c2)[C@@H](O)[C@H]1O.Cl [PRT382, (2 R,3 S,4 R,5 R)-2-[(R)-(3,4-dichlorophenyl)-hydroxy-methyl]-5-[(4Z)-4-methoxyimino-1H-pyrrolo[2,3-d]pyrimidin-7-yl]tetrahydrofuran-3,4-diol hydrochloride]
[1]
  lowest dose with decrease in global SDMA residues: 100 nM
[2]; HG3
  anti-proliferative potency compared to JNJ-64619178, LLY-283, and PF-06855800: similar-to-reduced
[2]; HG3, 1 nM, day 0
  Rep 1 Live Cells [Fold Change]: 1 Fold Change
  Rep 2 Live Cells [Fold Change]: 1 Fold Change
  Rep 3 Live Cells [Fold Change]: 1 Fold Change
[2]; HG3, 1 nM, day 3
  Rep 1 Live Cells [Fold Change]: 5.95 Fold Change
  Rep 2 Live Cells [Fold Change]: 7.45 Fold Change
  Rep 3 Live Cells [Fold Change]: 5.95 Fold Change
[2]; HG3, 1 nM, day 6
  Rep 1 Live Cells [Fold Change]: 46.5092 Fold Change
  Rep 2 Live Cells [Fold Change]: 44.5758 Fold Change
  Rep 3 Live Cells [Fold Change]: 27.1717 Fold Change
[2]; HG3, 1 nM, day 10
  Rep 1 Live Cells [Fold Change]: 425.559 Fold Change
  Rep 2 Live Cells [Fold Change]: 463.589 Fold Change
  Rep 3 Live Cells [Fold Change]: 237.752 Fold Change
[2]; HG3, 1 nM, day 12
  Rep 1 Live Cells [Fold Change]: 1418.53 Fold Change
  Rep 2 Live Cells [Fold Change]: 1486.57 Fold Change
  Rep 3 Live Cells [Fold Change]: 1077.81 Fold Change
[2]; HG3, 10 nM, day 0
  Rep 1 Live Cells [Fold Change]: 1 Fold Change
  Rep 2 Live Cells [Fold Change]: 1 Fold Change
  Rep 3 Live Cells [Fold Change]: 1 Fold Change
[2]; HG3, 10 nM, day 3
  Rep 1 Live Cells [Fold Change]: 6.983 Fold Change
  Rep 2 Live Cells [Fold Change]: 6.833 Fold Change
  Rep 3 Live Cells [Fold Change]: 6.567 Fold Change
[2]; HG3, 10 nM, day 6
  Rep 1 Live Cells [Fold Change]: 48.6506 Fold Change
  Rep 2 Live Cells [Fold Change]: 58.5389 Fold Change
  Rep 3 Live Cells [Fold Change]: 42.7928 Fold Change
[2]; HG3, 10 nM, day 10
  Rep 1 Live Cells [Fold Change]: 471.91 Fold Change
  Rep 2 Live Cells [Fold Change]: 680.515 Fold Change
  Rep 3 Live Cells [Fold Change]: 419.369 Fold Change
[2]; HG3, 10 nM, day 12
  Rep 1 Live Cells [Fold Change]: 1691.01 Fold Change
  Rep 2 Live Cells [Fold Change]: 2381.8 Fold Change
  Rep 3 Live Cells [Fold Change]: 2411.37 Fold Change
[2]; HG3, 100 nM, day 0
  Rep 1 Live Cells [Fold Change]: 1 Fold Change
  Rep 2 Live Cells [Fold Change]: 1 Fold Change
  Rep 3 Live Cells [Fold Change]: 1 Fold Change
[2]; HG3, 100 nM, day 3
  Rep 1 Live Cells [Fold Change]: 3.433 Fold Change
  Rep 2 Live Cells [Fold Change]: 6.117 Fold Change
  Rep 3 Live Cells [Fold Change]: 4.417 Fold Change
[2]; HG3, 100 nM, day 6
  Rep 1 Live Cells [Fold Change]: 12.7033 Fold Change
  Rep 2 Live Cells [Fold Change]: 20.7661 Fold Change
  Rep 3 Live Cells [Fold Change]: 13.7726 Fold Change
[2]; HG3, 100 nM, day 10
  Rep 1 Live Cells [Fold Change]: 31.282 Fold Change
  Rep 2 Live Cells [Fold Change]: 112.137 Fold Change
  Rep 3 Live Cells [Fold Change]: 30.472 Fold Change
[2]; HG3, 100 nM, day 12
  Rep 1 Live Cells [Fold Change]: 66.0571 Fold Change
  Rep 2 Live Cells [Fold Change]: 233.431 Fold Change
  Rep 3 Live Cells [Fold Change]: 63.4325 Fold Change
[2]; HG3, 1 µM, day 0
  Rep 1 Live Cells [Fold Change]: 1 Fold Change
  Rep 2 Live Cells [Fold Change]: 1 Fold Change
  Rep 3 Live Cells [Fold Change]: 1 Fold Change
[2]; HG3, 1 µM, day 3
  Rep 1 Live Cells [Fold Change]: 3.05 Fold Change
  Rep 2 Live Cells [Fold Change]: 6.15 Fold Change
  Rep 3 Live Cells [Fold Change]: 3.933 Fold Change
[2]; HG3, 1 µM, day 6
  Rep 1 Live Cells [Fold Change]: 3.162 Fold Change
  Rep 2 Live Cells [Fold Change]: 4.9815 Fold Change
  Rep 3 Live Cells [Fold Change]: 4.615 Fold Change
[2]; HG3, 1 µM, day 10
  Rep 1 Live Cells [Fold Change]: 2.64 Fold Change
  Rep 2 Live Cells [Fold Change]: 3.873 Fold Change
  Rep 3 Live Cells [Fold Change]: 1.218 Fold Change
[2]; HG3, 1 µM, day 12
  Rep 1 Live Cells [Fold Change]: 1.11 Fold Change
  Rep 2 Live Cells [Fold Change]: 5.3136 Fold Change
  Rep 3 Live Cells [Fold Change]: 0.1619 Fold Change
[2]; [4]
  dose at which growth inhibition begins: 100 nM
  effect on growth potential (cell growth): time and dose-dependent growth inhibition
[3]; Figure 7F, per mouse, week 1, in % (unit assumed)
  Week 1 CD19+/B220dim: 14.94 and 11.13 and 14.86 and 15.24 and 10.03 and 10.93 and 22.62 and 11.33 and 10.17 and 14.2
[3]; Figure 7F, per mouse, week 2, in % (unit assumed)
  Week 2 CD19+/B220dim: 13.43 and 12.86 and 10.14 and 23.82 and 13.56 and 16.79 and 25.72 and 21.61 and 19.95 and 20.17
[3]; Figure 7F, per mouse, week 3, in % (unit assumed)
  Week 3 CD19+/B220dim: 26.89 and 23.33 and 20.67 and 34.07 and 24.63 and 26.03 and 34.34 and 21.21 and 26.17 and 22.42
[3]; Figure 7F, per mouse, week 4, in % (unit assumed)
  Week 4 CD19+/B220dim: 41.39 and 38.3 and 24.43 and 39.63 and 41.81 and 49.51 and 51.09 and 40.09 and 18.3 and 35.71
[3]; Figure 7F, per mouse, week 5
  Week 5 CD19+/B220dim: 59.47 and 50.76 and 31.63 and 42.2 and 57.43 and 71.78 and 71.22 and 54.4 and 38.84 and 43.16
[3]; Figure 7F, per mouse, week 6, in % (unit assumed)
  Week 6 CD19+/B220dim: 77.7 and 46.25 and 37.53 and 72.87 and 45.24 and 51.74 and 53.46 and 63.05 and 57.02 and 47.66
[3]; Figure 7F, per mouse, week 7, in % (unit assumed)
  Week 7 CD19+/B220dim: 84.05 and 64.76 and 55.81 and 74.55 and 67.6 and 65.33 and 67.88 and 74.71 and 65.7 and 77.54
[3]; Figure 7F, per mouse, week 8
  Week 8 CD19+/B220dim: 89.79 and 78.47 and 68.08 and 80.27 and 72.86 and 72.85 and 63.41 and 82.55 and 81.05 and 82.92
[3]; Figure 7F, per mouse, week 9
  Week 9 CD19+/B220dim: 91.31 and 75.18 and 73.48 and 85.11 and 81.63 and 77.6 and 71.82 and 88.55 and 87.37 and 84.51
[3]; Figure 7F, per mouse, week 10, in % (unit assumed)
  Week 10 CD19+/B220dim: 76.49 and 84.3 and 76.64 and 83.91 and 87.5 and 87.78 and 77.93 and 88.18 and 89.1 and 91.37
[3]; Figure 7F, per mouse, week 11, in % (unit assumed)
  Week 11 CD19+/B220dim: 84.23 and 77.24 and 87.2 and 87.38 and 85.21 and 81.05 and 94.62 and 92.7 and 90.88
[3]; Figure 7F, per mouse, week 12
  Week 12 CD19+/B220dim: 87.17 and 83.54 and 90.72 and 88.55 and 85.11
[3]; Figure 7F, per mouse, week 13, in % (unit assumed)
  Week 13 CD19+/B220dim: 69.75 and 81.14 and 92.04 and 85.97 and 82.89
[3]; Figure 7G, survival endpoint indicator, per mouse
  Endpoint: 1
[3]; Figure 7G, survival, per mouse
  Days since enrollment: 64 days and 85 days and 92 days and 71 days and 84 days
[3]; Figure 7H, per mouse
  Spleen weight: 0.86 g and 1.01 g and 0.37 g and 0.52 g and 0.24 g and 0.7 g and 0.84 g
[3]; PRT382 10 mg/kg
  survival compared to EPZ015666 or vehicle: significant extension in survival
[3]; PRT382 10 mg/kg vs EPZ015666 50 mg/kg, survival
  hazard ratio, PRT382 vs EPZ015666 (Mantel–Cox): 0.65
[3]; PRT382 10 mg/kg, EPZ015666 50 mg/kg
  PRMT5 target modulation, immunoblot of splenic B cells: confirmed PRMT5 target modulation
[3]; PRT382 10 mg/kg, EPZ015666 50 mg/kg, oral gavage 4 contiguous days per week
  Median survival post-enrollment: 77 days
[3]; PRT382 10 mg/kg, survival
  hazard ratio, PRT382 vs vehicle (Mantel–Cox): 0.21
[3]; at ERC
  spleen weight and volume compared to EPZ015666 or vehicle: significantly reduced weight and volume
[3]; compared with vehicle or EPZ015666-treated mice
  leukemic expansion across non-lymphoid tissues (histopathology, liver): decrease in leukemic expansion
[3]; individual mice, Supplemental Figure 6F
  Spleen volume: 645.24 mm3 and 1183.96 mm3 and 457.289 mm3 and 271.152 mm3 and 253.789 mm3 and 859.967 mm3 and 562.493 mm3
[3]; weeks 2-7 post engraftment, compared to EPZ015666 or vehicle
  rate of peripheral disease (CLL-like cells in peripheral blood): reduced the rate of peripheral disease
